Data: PMC2677626, “How β-Lactam Antibiotics Enter Bacteria: A Dialogue with the Porins” (PLoS ONE, 2009)

Target: T1, OmpC (Escherichia coli, UniProt P06996)
T1 construct: OmpC porin in planar lipid bilayer
Assay: single-channel ion current blockage in planar lipid bilayer
Format: binding
Conditions: data not shown in paper; same pattern as Omp36

T1 sequence (P06996 22-367): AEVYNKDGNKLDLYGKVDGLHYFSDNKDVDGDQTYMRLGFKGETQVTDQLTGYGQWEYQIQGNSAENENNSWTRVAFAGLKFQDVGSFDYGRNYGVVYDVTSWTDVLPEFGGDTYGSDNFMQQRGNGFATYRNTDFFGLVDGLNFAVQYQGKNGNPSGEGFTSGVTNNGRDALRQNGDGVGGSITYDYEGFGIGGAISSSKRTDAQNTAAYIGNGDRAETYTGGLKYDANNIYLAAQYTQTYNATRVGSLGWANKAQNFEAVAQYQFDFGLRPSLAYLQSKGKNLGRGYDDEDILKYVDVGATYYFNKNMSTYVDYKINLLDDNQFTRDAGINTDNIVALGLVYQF

| Structure (SMILES) | single-channel ion current blockage in planar lipid bilayer |
| --- | --- |
| CO/N=C(\C(=O)N[C@@H]1C(=O)N2C(C(=O)[O-])=C(C[N+]3(C)CCCC3)CS[C@H]12)c1csc(N)n1 [cefepime] | showed the same pattern of interaction with ertapenem, cefepime, ceftazidime and ampicillin (data not shown) |
| C[C@@H](O)[C@H]1C(=O)N2C(C(=O)O)=C(S[C@@H]3CN[C@H](C(=O)Nc4cccc(C(=O)O)c4)C3)[C@H](C)[C@H]12 [ertapenem] | showed the same pattern of interaction with ertapenem, cefepime, ceftazidime and ampicillin (data not shown) |
